“Also recorded” adds a separate entry of the source.
Tests used:
[1] = system: isolated perfused diabetic kidneys; assay: Flow rate of isolated perfused diabetic kidneys after mast-cell degranulation with 48/80; details: diabetic rat kidney; for vasoconstriction response to 48/80 compared to untreated diabetic kidney (in words): BILA 2157 in perfusate
Protocol: Mast-cell degranulation was induced with agent 48/80, which will release renin, as the inventors have previously shown, as well as numerous other mediators synthesized and stored by mast cells.
Flow rate (ml/min) was measured under constant perfusion pressure, and is plotted against time (min).
After establishing a constant flow rate, mast-cell degranulation was induced by injecting the 48/80 degranulating agent (300 μg/ml) into the renal artery (at arrow). […] However, the magnitude of this vasoconstriction response was markedly different between the two kidneys. […] Moreover, the return to baseline flow rate was much faster in the BILA2157-treated diabetic kidney (˜8 min) compared to the untreated diabetic kidney (˜40 min). The rate of the initial flow recovery was also greater in the BILA-treated diabetic kidney (0.5 mls/min/min) compared to the untreated diabetic kidney (0.3 mls/min/min). […] In situ, the time it takes to return to normal flow after an acute increase in vascular resistance can profoundly influence the extent of ischemic damage in the kidney.

[2] = system: STZ-induced diabetic rat; assay: Retinal whole mounts stained with FITC-griffonia lectin (tortuosity of retinal microvasculature); format: in vivo; details: cromolyn-treated diabetic rat, retinal whole mount
Protocol: To induce a model of type-I diabetes, Sprague Dawley and Long-Evans rats were injected with a single dose of streptozotocin (STZ) (60 mg/kg) and maintained for 2 months. Hyperglycemia was confirmed by monitoring blood from tail bleeds. To assess vascular leakage in these diabetic rats, fluorescein retinal angiography was performed weekly over a 2-month time course in the Long-Evans rats. In some experiments, rats were treated with the mast cell stabilizer, Na-cromolyn, topically administered to the eyes. […] This Example describes an analysis of the retinal vasculature from fixed eyes of control (A), diabetic (B), and cromolyn-treated diabetic (C) rats.

[3] = system: STZ-induced hyperglycemic Long-Evans rats; assay: Evan's Blue dye leakage across the blood-retinal barrier; format: in vivo, rat; details: Na cromolyn 4% topical, 2 drops twice a day, day 15 post STZ, n=4 rats
Description: In order to verify this finding, additional experiments were designed to measure leakiness across the blood-retinal barrier of STZ-induced hyperglycemic Long-Evans rats and to determine whether mast cell stabilization reduces vascular permeability in the hyperglycemic state. Blood glucose levels were monitored weekly to verify the hyperglycemic state. The three groups of animals were as follows: untreated hyperglycemic, cromolyn-treated hyperglycemic, and normo-glycemic (vehicle injected). The hyperglycemic group of rats was treated with the mast cell stabilizer (Na cromolyn, 4%) by topical administration to the eyes (2 drops twice a day), as described above.
Measurements of the Evan's Blue dye concentration across the blood-retinal barrier were performed on day 15 post±STZ-injection. […] 100 μl of the filtrate was then measured in a spectrophotometer at 620 nm, the dye's absorbance maximum. The dye's absorbance minimum, 740 nm, served as a reference wavelength. Dilutions (1:1000 in formamide) of the collected plasma were also measured spectrophotometrically at this time. Sample absorbance measurements were converted to concentrations using absorbance measurements from known concentrations of Evan's Blue in formamide. Dye leakage from blood to retina was calculated as: […]

[4] = system: VEGF; assay: VEGF levels in retinas of STZ-injected diabetic rats; format: in vivo, rat; details: for effect on VEGF levels in retina (in words): STZ-induced diabetic rats, Na-Cromolyn 4% topical
Protocol: The STZ-induced diabetic rat model (Long Evans strain) (40 mg/kg body wt; 28 days) was used for these studies. To evaluate the effect of a mast cell stabilizer on VEGF levels, STZ-injected rats were treated with the mast cell stabilizer, Na-Cromolyn (4%), topically administered to the eyes (2 drops b.i.d.). VEGF levels were measured in the retinas of STZ-injected diabetic rats treated with Na-Cromolyn and these levels were compared to VEGF levels in the retinas of control rats and in the retinas of STZ-injected diabetic rats that received no Na-Cromolyn. Control rats received no streptozotocin (STZ) and no Na-Cromolyn.

[5] = system: STZ-induced diabetic rat model (Long Evans strain); assay: Fluorescein angiography of retinal vascular permeability; format: in vivo; details: for leakage/pooling of fluorescein dye out of retinal vessels: 2 drops b.i.d.; for retinal vascular leakiness (fluorescein) over time: STZ Long-Evans rats, 14 and 28 days, n=3, FIG. 14
Protocol: To assess vascular leakage in these diabetic rats, fluorescein retinal angiography was performed weekly over a 2-month time course in the Long-Evans rats. In some experiments, rats were treated with the mast cell stabilizer, Na-cromolyn, topically administered to the eyes. The structure of Na-Cromolyn is shown below.
Angiography was performed on an upright fluorescence microscope using a long working distance lens. At the 2-month end point, rats were sacrificed and the eyes were enucleated, dissected free of cornea and extra-orbital connective tissue, and fixed in 4% paraformaldehyde.
The STZ-induced diabetic rat model (Long Evans strain) (40 mg/kg body wt; 28 days) was used for these studies. Fluorescein angiography was performed to assess the permeability of the retinal vasculature in these rats. The pigmented eyes of this strain facilitate angiography. Diabetic rats were treated with the mast cell stabilizer Na-cromolyn and the vascular permeability of these treated rats was compared to diabetic rats that were not treated with Na-cromolyn.
Weekly angiograms were also performed on control rats, STZ-injected, and STZ-injected rats treated with the mast cell stabilizer, Na cromolyn […], topically administered to the eyes (2 drops b.i.d.).
The STZ-induced diabetic rat model (Long Evans strain) (40 mg/kg body wt; 28 days) was used for fluorescein angiography experiments. The pigmented eyes of this strain facilitate angiography. To evaluate the role of mast cells, weekly angiograms were performed on control rats, STZ-injected, and STZ-injected rats treated with the mast cell stabilizer, Na cromolyn (4%), topically administered to the eyes (2 drops b.i.d.).

[6] = system: renin; assay: Renin activity (ANG I formed, RIA) of HMC-1 cells before and 48 hours after siRNA transfection; format: cell-based, human; details: siRNA 50 nM, 48 hours after transfection
Protocol: Renin-specific siRNA duplexes were made based on the coding sequence of human renin between exons 2-8 (Dharmacon) (accession number M26900). The four siRNA duplexes were made against the following renin sequences:
To assess the efficacy of this siRNA approach, the activity of renin protein was measured both before siRNA transfecting and at 48 hours after transfection of the HMC-1 cells.
HMC-1 cells were seeded in 6-well plates. Cells were transfected either with: renin siRNA duplexes (50 nM), scrambled siRNA duplex (50 nM), or treated with the transfection reagent (control), and maintained for 48 hours. An aliquot of cells from each well was counted to estimate the cell number before (initial) and 48 hours after transfection (post). The ability of the siRNA duplexes to silence renin mRNA in the transfected HMC-1 cells was determined by comparing the amount of ANG I formed in the releasate pre- and post-transfection by radioimmunoassay (RIA). […] The amount of ANG I generated on each sample is expressed as pg ANG I formed/ml/hr/10^5 cells. The effect of the siRNA on the amount of renin protein produced by the cell was determined by comparing the initial and final amounts of ANG I formed (renin activity) by the releasates.

[7] = system: HMC-1 cells; assay: Chemotaxis of HMC-1 cells in Corning transwells; format: cell-based, human; details: transwell, p<0.05
Protocol: Chemotaxis experiments were performed with cultured human mastocytoma cells. HMC-1 cells were plated in Corning transwells consisting of inner and outer wells. The number of mast cells migrating through the insert in response to exogenous histamine±thioperamide, an H3/H4 histamine receptor […], was counted.

CC(C)C[C@H](O)[C@H](O)[C@H](CC1CCCCC1)NC(=O)[C@@H](CC(=O)N(CC(=O)N(C)CCc1ccccn1)CC1CCCCC1)Cc1csc(N)n1 [BILA2157]
rate of the initial flow recovery ([1]; 100 nM BILA 2157, after 48/80): 0.5 mls/min/min | return to baseline flow rate ([1]; 100 nM BILA 2157, after 48/80): ~8 min | flow rate after 48/80 injection (from baseline 20 ml/min) ([1]; 100 nM BILA 2157 in perfusate, constant perfusion pressure, 48/80 300 μg/ml into renal artery): 12 mL/min | effect on flow rate in the absence of a degranulating agent ([1]; 100 nM in perfusate): no effect on flow rate | vasoconstriction response to 48/80 compared to untreated diabetic kidney (in words) [1]: much less vasoconstriction | vasoconstriction response to 48/80 compared to untreated diabetic kidney (in words) ([1]; listed as BILA 2157): offsets the rate reducing effects

O=C([O-])c1cc(=O)c2c(OCC(O)COc3cccc4oc(C(=O)[O-])cc(=O)c34)cccc2o1.[Na+].[Na+] [Na-cromolyn, Na-Cromolyn]
tortuosity / abnormal vessel morphology of retinal microvasculature [2]: abnormal changes in the vessel morphology were not observed | Evan's Blue dye leakage across the blood-retinal barrier [3]: prevented dye leakage into the retinal space; also recorded: protects against the early phase of increased vascular permeability | Evan's Blue dye leakage across the blood-retinal barrier ([3]; listed as cromolyn Na): protective effect against increased vascular permeability | effect on VEGF levels in retina (in words) [4]: reduces vascular endothelial growth factor (VEGF) levels | effect on VEGF levels in retina (in words) ([4]; listed as Cromolyn Na): decreases vascular endothelial growth factor (VEGF) levels | VEGF level in retina ([4]; STZ-injected hyperglycemic rats, Na-Cromolyn 4% topical 2 drops b.i.d., 1 month, n=2): about 65 pg VEGF/ml/mg retina | leakage/pooling of fluorescein dye out of retinal vessels ([5]; Na cromolyn 2% topical, day 28, FIG. 15): prevented dye pooling | leakage/pooling of fluorescein dye out of retinal vessels ([5]; Na cromolyn 4% topical, weekly angiograms): prevented dye pooling | retinal vascular leakiness (fluorescein) over time [5]: greatly diminished | retinal vascular leakiness (fluorescein) over time ([5]; listed as cromolyn): reduces the leakage of fluorescein from retinal vessels

scrambled control siRNA: negative control, non-specific scrambled siRNA duplex, SEQ ID NO: 9 and 10 (chain 1 AUGUAUUGGCCUGUAUUAGUU; chain 2 CUAAUACAGGCCAAUACAUUU; listed as RNA, chemistry not given here)
change in renin activity / amount of ANG I formed after transfection (in words) [6]: no significant decrease

S=C(NC1CCCCC1)N1CCC(c2cnc[nH]2)CC1 [thioperamide]
migration with histamine alone compared to thioperamide alone or histamine in the presence of thioperamide [7]: significantly more migration

NCCc1c[nH]cn1 [histamine]
number of mast cells migrating through the insert in response to exogenous histamine ([7]; vs control): significantly more migration

— patent publication US10517839B2, “Mast cell inhibition in diseases of the retina and vitreous” (Cornell University, priority 2008, dated 2019)
